Laboratory results: patent US20250326748A1, “COMPOUNDS AND METHODS FOR MODULATING SPLICING” (REMIX THERAPEUTICS INC., priority 2022, published 2025)
Where two headings read alike, the source gives them in different places.

Legend:
Format in all cases: cell-based, human
HTT mRNA = assay: Splicing RT-qPCR assay, HTT canonical (CJ) and alternative (AJ) junction mRNA; settings: Homo sapiens; for IC50: canonical junction mRNA; for AC50: alternative junction mRNA, read-out: HTT AJ (AC50, increase in AJ mRNA)
Outline: (§1)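 A673 or K562 cells were treated for 24 h at 37 °C with an 11-point 3-fold compound dilution series (top final 10 uM, DMSO ≤0.25%). Lysates then went to one-step TaqMan RT-qPCR quantifying canonical (CJ) and alternative-exon (AJ) junction transcripts, normalized to a housekeeping gene.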

MYB mRNA = assay: Splicing RT-qPCR assay, MYB canonical (CJ) and alternative (AJ) junction mRNA; settings: Homo sapiens; for IC50: canonical junction mRNA; for AC50: alternative junction mRNA, read-out: MYB AJ (AC50, increase in AJ mRNA)
Outline: as §1

SMN2 mRNA = assay: Splicing RT-qPCR panel, SMN2 canonical junction (CJ) mRNA; settings: Homo sapiens, read-out: SMN2 CJ (decrease in CJ mRNA levels, IC50)
Outline: (§2)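 A673 cells (DMEM, 10% FBS) or K562 cells (IMDM, 10% FBS) treated 24 h at 37 °C with an 11-point 3-fold dilution, top 10 uM, DMSO ≤0.25%. Canonical-junction mRNA quantified in lysates by RT-qPCR, normalised to GAPDH, GUSB or PPIA and to DMSO (2^−ΔΔCt), then converted to % response.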

Target C mRNA = assay: Splicing RT-qPCR panel, Target C canonical junction (CJ) mRNA; settings: Homo sapiens, read-out: Target C CJ (decrease in CJ mRNA levels, IC50)
Outline: as §2

[1] = 24 h, RT-qPCR, A673 or K562 cells, 24 hours treatment, read-out: HTT CJ (IC50, decrease in CJ mRNA)
[2] = qPCR panel, read-out: HTT CJ (decrease in CJ mRNA levels, IC50)
[3] = RT-qPCR, A673 or K562 cells, 24 hours treatment
[4] = qPCR panel, read-out: MYB CJ (decrease in CJ mRNA levels, IC50)
[5] = RT-qPCR, A673 or K562 cells, 24 hours treatment, read-out: MYB CJ (IC50, decrease in CJ mRNA)

Structure (SMILES) | IC50 (HTT mRNA; [1]) | IC50 (HTT mRNA; [2]) | AC50 (HTT mRNA; [3]) | IC50 (MYB mRNA; [4]) | AC50 (MYB mRNA; [3]) | IC50 (MYB mRNA; [5]) | IC50 (SMN2 mRNA) | IC50 (Target C mRNA)
Cn1cc2cc(-c3cnc4cc(N5CC[C@@H](NC6CC6)C5)ccc4n3)c(O)c(F)c2n1 [Compound 177, 5-[6-[(3R)-3-(cyclopropylamino)318quinoxaline-1-yl]318quinoxaline-2-yl]-7-fluoro-2-methyl-indazol-6-ol] | < 100 nM | < 100 nM | < 100 nM | < 100 nM | < 100 nM | < 100 nM | < 100 nM | < 100 nM
Cn1cc2cc(-c3cnc4nc(N5CCC(NC6CC6)C5)ccc4n3)c(O)c(F)c2n1 (centres unmarked) [Compound 178, 5-[6-[3-(cyclopropylamino)pyrrolidin-1-yl]pyrido[2,3-b]pyrazin-2-yl]-7-fluoro-2-methyl-indazol-6-ol] | < 100 nM | < 100 nM | 100 to 1000 nM | < 100 nM | 100 to 1000 nM | < 100 nM | < 100 nM | 100 to 1000 nM
Cc1nc2c(C)c(O)c(-c3cnc4cc(N5CCC(NC6CC6)C5)ccc4n3)cc2o1 (centres unmarked) [Compound 182, 6-[6-[3-(cyclopropylamino)pyrrolidin-1-yl]quinoxalin-2-yl]-2,4-dimethyl-1,3-benzoxazol-5-ol] | < 100 nM | < 100 nM | < 100 nM | < 100 nM | < 100 nM | < 100 nM | < 100 nM | 100 to 1000 nM
CNC1CCN(c2cnc3nc(-c4cc5cn(C)nc5c(C)c4O)ccc3n2)C1 (centres unmarked) [Compound 192, 2,7-dimethyl-5-{2-[3-(methylamino)337pyrrolidine-1-yl]pyrido[2,3-b]pyrazin-6-yl}indazol-6-ol] | 100 to 1000 nM | 100 to 1000 nM | 100 to 1000 nM | 100 to 1000 nM | 100 to 1000 nM | 100 to 1000 nM | < 100 nM | 100 to 1000 nM
CNC1CCN(c2cnc3nc(-c4cc5cn(C)nc5c(C)c4O)cc(Cl)c3n2)C1 (centres unmarked) [Compound 193, 5-{8-chloro-2-[3-(methylamino)355pyrrolidine-1-yl]pyrido[2,3-b]pyrazin-6-yl}-2,7-dimethylindazol-6-ol] | 100 to 1000 nM | 100 to 1000 nM | 100 to 1000 nM | < 100 nM | < 100 nM | < 100 nM | < 100 nM | 100 to 1000 nM
CNC1CCN(c2cnc3nc(-c4cc5cn(C)nc5c(C)c4O)cc(OC)c3n2)C1 (centres unmarked) [Compound 194, 5-{8-methoxy-2-[3-(methylamino)360pyrrolidine-1-yl]pyrido[2,3-b]pyrazin-6-yl}-2,7-dimethylindazol-6-ol] | 1000 to 10000 nM | 1000 to 10000 nM | > 10000 nM | 1000 to 10000 nM | 1000 to 10000 nM | 1000 to 10000 nM | 100 to 1000 nM | > 10000 nM
Cc1c(O)c(-c2ccc3nc(N4C[C@@H](C)N[C@@H](C)C4)cnc3n2)cc2cn(C)nc12 [Compound 195, 5-{2-[(3R,5S)-3,5-dimethylpiperazin-1-yl]pyrido[2,3-b]pyrazin-6-yl}-2,7-dimethylindazol-6-ol] | 1000 to 10000 nM | 1000 to 10000 nM | > 10000 nM | 100 to 1000 nM | 100 to 1000 nM | 100 to 1000 nM | < 100 nM | > 10000 nM
Cc1c(O)c(-c2ccc3nc(N4CCNCC4)cnc3n2)cc2cn(C)nc12 [Compound 197, 2,7-dimethyl-5-[2-(piperazin-1-yl)pyrido[2,3-b]pyrazin-6-yl]indazol-6-ol] | 100 to 1000 nM | 100 to 1000 nM | 100 to 1000 nM | 100 to 1000 nM | 100 to 1000 nM | 100 to 1000 nM | < 100 nM | 100 to 1000 nM
Cc1c(O)c(-c2ccc3nc(N4CCC(N(C)C)CC4)cnc3n2)cc2cn(C)nc12 [Compound 198] | 1000 to 10000 nM | < 100 nM | > 10000 nM | < 100 nM | 100 to 1000 nM | 100 to 1000 nM | < 100 nM | 100 to 1000 nM
Cn1cc2cc(-c3ccc4cc(N5CC[C@@H](NC(C)(C)C)C5)cnc4n3)c(O)cc2n1 [Compound 199] | 1000 to 10000 nM | 1000 to 10000 nM | 1000 to 10000 nM | 1000 to 10000 nM | 1000 to 10000 nM | 1000 to 10000 nM | 100 to 1000 nM | 1000 to 10000 nM
Cc1cn2cc(-c3cnc4nc(C5CCNCC5)ccc4c3)cc(C)c2n1 [Compound 201] | > 10000 nM | < 100 nM | > 10000 nM | < 100 nM | > 10000 nM | > 10000 nM | < 100 nM | < 100 nM
CN[C@@H]1CCN(c2cnc3nc(-c4cc(F)c5nc(C)cn5c4)ncc3c2)C1 [Compound 202, (3R)-1-(2-{8-fluoro-2-methylimidazo[1,2-a]pyridin-6-yl}pyrido[2,3-d]pyrimidin-6-yl)-N-methylpyrrolidin-3-amine] | 100 to 1000 nM | 100 to 1000 nM | 100 to 1000 nM | < 100 nM | 100 to 1000 nM | < 100 nM | < 100 nM | 100 to 1000 nM
CC1CN(c2cnc3nc(-c4cc(F)c5nn(C)cc5c4)cc(Cl)c3c2)CCN1 (centres unmarked) [Compound 203, 4-chloro-2-(7-fluoro-2-methyl-2H-indazol-5-yl)-6-(3-methylpiperazin-1-yl)-1,8-naphthyridine 2,2,2-trifluoroacetate] | 100 to 1000 nM | 100 to 1000 nM | 1000 to 10000 nM | 100 to 1000 nM | < 100 nM | 100 to 1000 nM | < 100 nM | 1000 to 10000 nM
Cc1c(O)c(-c2cc(Cl)c3cc(N(C)C4CCNC4)cnc3n2)cc2cn(C)nc12 (centres unmarked) [Compound 204, 5-[4-chloro-6-(367pyrrolidine-3-ylamino)-1,8-naphthyridin-2-yl]-2,7-dimethylindazol-6-ol] | 1000 to 10000 nM | 1000 to 10000 nM | 1000 to 10000 nM | 100 to 1000 nM | 100 to 1000 nM | 100 to 1000 nM | < 100 nM | > 10000 nM
Cc1cn2nc(-c3ccc4cc(N(C)C5CCNCC5)cnc4n3)cc(C)c2n1 [Compound 205, 7-{2,8-dimethylimidazo[1,2-b]pyridazin-6-yl}-N-methyl-N-(piperidin-4-yl)-1,8-naphthyridin-3-amine] | > 10000 nM | > 10000 nM | > 10000 nM | 1000 to 10000 nM | 1000 to 10000 nM | 1000 to 10000 nM | 100 to 1000 nM | > 10000 nM
C[C@@H]1CN(c2cnc3nc(-c4cc5cn(C)nc5c(F)c4O)ccc3c2)C[C@H](C)N1 [Compound 206] | < 100 nM | < 100 nM | 100 to 1000 nM | < 100 nM | < 100 nM | < 100 nM | < 100 nM | 100 to 1000 nM
